Laboratory results: PubChem BioAssay (NCI)
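Briefly, cells in 96-well plates were exposed to five compound concentrations for 48 h, and endpoints were estimated by linear interpolation. GI50 marks 50% less growth. TGI is the concentration that stops growth completely.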

Legend:
Test in all cases: NCI tumour cell line growth inhibition, 48 h
[1] = system: SN12C renal
[2] = system: UO-31 renal
[3] = system: SK-MEL-28 melanoma
[4] = system: MDA-MB-468 breast
[5] = system: M14 melanoma
[6] = system: NCI-H522 lung
[7] = system: HCT-15 colon
[8] = system: HOP-62 NSCLC
[9] = system: SF-268 CNS
[10] = system: DU-145 prostate
[11] = system: CCRF-CEM leukemia
[12] = system: ACHN renal
[13] = system: UACC-257 melanoma
[14] = system: OVCAR-5 ovarian
[15] = system: SF-539 CNS
[16] = system: U251 CNS
[17] = system: K-562 leukemia
[18] = system: SR leukemia
[19] = system: SNB-75 CNS
[20] = system: CAKI-1 renal
[21] = system: OVCAR-8 ovarian
[22] = system: MDA-MB-435
[23] = system: OVCAR-3 ovarian
[24] = system: RXF 393 renal
[25] = system: HCT-116 colon
[26] = system: HCC-2998 colon
[27] = system: SW-620 colon
[28] = system: IGROV1 ovarian
[29] = system: HOP-92 NSCLC
[30] = system: MALME-3M melanoma

SMILES: O=C(COc1ccc(NC(=O)Nc2ccc(Cl)c(Cl)c2)cc1)N=Nc1c(O)[nH]c2ccccc12
- TGI [1]: 3.77 µM
- GI50 [2]: 39 µM
- TGI [2]: > 100 µM
- GI50 [3]: 2.12 µM
- TGI [3]: 5.07 µM
- GI50 [4]: 1.8 µM
- TGI [4]: 3.8 µM
- GI50 [5]: 2.63 µM
- TGI [5]: 8.58 µM
- GI50 [6]: 2.49 µM
- TGI [6]: 8.06 µM
- GI50 [7]: 46.8 µM
- TGI [7]: > 100 µM
- GI50 [8]: 2.34 µM
- TGI [8]: 5.82 µM
- GI50 [9]: 2.44 µM
- TGI [9]: 6.14 µM
- GI50 [10]: 3.29 µM
- TGI [10]: 18.7 µM
- GI50 [11]: 3.97 µM
- TGI [11]: 20.8 µM
- GI50 [12]: 7.78 µM
- TGI [12]: 36.2 µM
- GI50 [13]: 2.96 µM
- TGI [13]: 10 µM
- GI50 [14]: 3.39 µM
- TGI [14]: 13.7 µM
- GI50 [15]: 1.97 µM
- TGI [15]: 4.38 µM
- GI50 [16]: 1.77 µM
- TGI [16]: 3.32 µM
- GI50 [17]: 3.46 µM
- TGI [17]: 17.9 µM
- GI50 [18]: 4.65 µM
- TGI [18]: 32.9 µM
- GI50 [19]: 1.65 µM
- TGI [19]: 5.09 µM
- GI50 [20]: 4.69 µM
- TGI [20]: 17.1 µM
- GI50 [21]: 2.1 µM
- TGI [21]: 4.84 µM
- GI50 [22]: 2.05 µM
- TGI [22]: 4.8 µM
- GI50 [23]: 2.02 µM
- TGI [23]: 4.67 µM
- GI50 [24]: 2 µM
- TGI [24]: 7.65 µM
- GI50 [25]: 3.22 µM
- TGI [25]: 10.3 µM
- GI50 [26]: 5.31 µM
- TGI [26]: 18.1 µM
- GI50 [27]: 1.72 µM
- TGI [27]: 3.79 µM
- GI50 [28]: 4.59 µM
- TGI [28]: 17.4 µM
- GI50 [29]: 2.58 µM
- TGI [29]: 9.45 µM
- GI50 [30]: 1.83 µM
- TGI [30]: 3.76 µM
